The subject of one assay is pFGFR4 in Huh7 cells. Put plainly: FGFR4 signaling, pFGFR4 (Huh); MSD (Method B). Format: cell-based. The following applies: Homo sapiens, Huh-7; Huh7 cells; read-out: Signaling EC50 (nM) pFGFR4 (Huh).
For assay [1], the system named is pFGFR4 in MDA-MB-453 cells. As to the kind of experiment: FGFR4 signaling, pFGFR4 (MDA); Western blot (Method A), MSD (Method B), ELISA (Method C). Format: cell-based. The following applies: Homo sapiens, Method B (MSD) for signaling EC50 determination. Background: In western blotting, separated proteins are transferred to a membrane and probed.

The EC50 is the concentration needed to bring the measured effect to its halfway point. In the case of `C=CC(=O)Nc1cc(N2CCN(CCOC)CC2)ccc1Nc1ncc2c(n1)N(Cc1cccc(NC(=O)CC)c1)C(=O)N(c1cc(OC)cc(OC)c1)C2` [Compound I-9], the half-maximal effective concentration (EC50) was 101 to 500 nM with pFGFR4 in Huh7 cells and less than 100 nM in assay [1] (MDA-MB-453 cells).
For `C=CC(=O)Nc1ccccc1Nc1ncc2c(n1)N(Cc1ccnc(N)c1)C(=O)N(c1cc(OC)cc(OC)c1)C2` [Compound I-87] the same measures were less than 100 nM and less than 100 nM.
On to `C=CC(=O)Nc1ccccc1Nc1ncc2c(n1)N(C1CCCNC1)C(=O)N(c1cc(OC)cc(OC)c1)C2` (centres unmarked) [Compound I-43], for which the values for the concentration giving a half-maximal response (EC50) (in the assay with pFGFR4 in Huh7 cells; in assay [1] (MDA-MB-453 cells)) were more than 1000 nM and 501 to 999 nM, respectively.
For `C=CC(=O)Nc1ccccc1Nc1ncc2c(n1)N(CCF)C(=O)N(c1cc(OC)cc(OC)c1)C2` [Compound I-102] the same measures were less than 100 nM and 101 to 500 nM.
Take `C=CC(=O)Nc1ccccc1Nc1ncc2c(n1)N(CC(O)CO)C(=O)N(c1cc(OC)cc(OC)c1)C2` (centres unmarked) [Compound I-33]: the values for the EC50 (in the assay with pFGFR4 in Huh7 cells; in assay [1] (MDA-MB-453 cells)) were more than 1000 nM and 101 to 500 nM, respectively.
For `C=CC(=O)NC1CCCCC1Nc1ncc2c(n1)N(Cc1csc(C)n1)C(=O)N(c1c(Cl)c(OC)cc(OC)c1Cl)C2` (centres unmarked) [Compound I-137] the same measures were 101 to 500 nM and 101 to 500 nM.
As for `COc1cc(OC)c(Cl)c(N2Cc3cnc(Nc4ccccc4)nc3N(C)C2=O)c1Cl` [Compound I-238], the EC50 (with pFGFR4 in Huh7 cells; in assay [1] (MDA-MB-453 cells)) was less than 100 nM in each case.
For the compound `C=CC(=O)Nc1ccccc1Nc1ncc2c(n1)N(C1COC1)C(=O)N(c1cc(OC)cc(OC)c1)C2` [Compound I-88], the EC50 (with pFGFR4 in Huh7 cells; in assay [1] (MDA-MB-453 cells)) was 101 to 500 nM each time.
Take `C=CC(=O)N[C@@H]1COC[C@@H]1Nc1ncc2c(n1)N(C)C(=O)N(c1c(Cl)c(OC)cc(OC)c1Cl)C2` [Compound I-185]: the half-maximal effective concentration (EC50) in the assay with pFGFR4 in Huh7 cells is more than 1000 nM; in assay [1] (MDA-MB-453, MDA-MB-453 cells), 101 to 500 nM.
For `C=CC(=O)NC1CN(C)CC1Nc1ncc2c(n1)N(C)C(=O)N(c1c(Cl)c(OC)cc(OC)c1Cl)C2` (racemic) [Compound I-138], the EC50 lay in the range of 101 to 500 nM in the assay with pFGFR4 in Huh7 cells and 101 to 500 nM in assay [1] (MDA-MB-453, MDA-MB-453 cells).
`C=CC(=O)NC1CCCCC1Nc1ncc2c(n1)N(Cc1ccn(C)c(=O)c1)C(=O)N(c1c(Cl)c(OC)cc(OC)c1Cl)C2` (centres unmarked) [Compound I-132]: the 50% effective concentration (EC50) (in the assay with pFGFR4 in Huh7 cells; in assay [1] (MDA-MB-453 cells)) was 101 to 500 nM throughout.
Consider `C=CC(=O)NC1CCCCC1Nc1ncc2c(n1)N(CCF)C(=O)N(c1cc(OC)cc(OC)c1Cl)C2` (racemic) [Compound I-111], for which the concentration giving a half-maximal response (EC50) in the assay with pFGFR4 in Huh7 cells is more than 1000 nM; in assay [1] (MDA-MB-453, MDA-MB-453 cells), 501 to 999 nM.
`C=CC(=O)Nc1ccccc1Nc1ncc2c(n1)N(Cc1cn[nH]c1)C(=O)N(c1c(Cl)c(OC)cc(OC)c1Cl)C2` [Compound I-124]: the concentration for a half-maximal effect (EC50) (in the assay on pFGFR4 in Huh7 cells; in assay [1] (MDA-MB-453 cells)) was less than 100 nM in each case.
On to `C=CC(=O)Nc1ccccc1Nc1ncc2c(n1)N(CCOC)C(=O)N(c1cc(OC)cc(OC)c1)C2` [Compound I-59], for which the EC50 (in the assay on pFGFR4 in Huh7 cells; in assay [1] (MDA-MB-453 cells)) was 101 to 500 nM throughout.
`C=CC(=O)Nc1ccccc1Nc1ncc2c(n1)N(Cc1cscn1)C(=O)N(c1cc(OC)cc(OC)c1)C2` [Compound I-64]: the half-maximal effective concentration (EC50) (in the assay on pFGFR4 in Huh7 cells; in assay [1] (MDA-MB-453 cells)) was 101 to 500 nM in each case.
As for `C=CC(=O)NC1CCCCC1Nc1ncc2c(n1)N(CC#N)C(=O)N(c1c(Cl)c(OC)cc(OC)c1Cl)C2` (racemic) [Compound I-47], the EC50 in the assay on pFGFR4 in Huh7 cells fell in the range of 501 to 999 nM; in assay [1] (MDA-MB-453 cells), 101 to 500 nM.
For the compound `C=CC(=O)Nc1ccccc1Nc1ncc2c(n1)N(CC(F)F)C(=O)N(c1c(F)c(OC)cc(OC)c1F)C2` [Compound I-116], the EC50 (with pFGFR4 in Huh7 cells; in assay [1] (MDA-MB-453 cells)) was less than 100 nM in each case.
For `C=CC(=O)NC1CCCCC1Nc1ncc2c(n1)N(CC(F)F)C(=O)N(c1c(Cl)c(OC)cc(OC)c1Cl)C2` (racemic) [Compound I-105], the EC50 was in the range of 101 to 500 nM in the assay with pFGFR4 in Huh7 cells and 101 to 500 nM in assay [1] (MDA-MB-453, MDA-MB-453 cells).
For `C=CC(=O)Nc1ccccc1Nc1ncc2c(n1)N(CC1CC1)C(=O)N(c1cc(OC)cc(OC)c1)C2` [Compound I-98], the EC50 (with pFGFR4 in Huh7 cells; in assay [1] (MDA-MB-453 cells)) was less than 100 nM each time.

Source of the values: patent US10774052B2, “Heteroaryl compounds and uses thereof” (Celgene CAR LLC, priority 2013, dated 2020).
